Measured values: US20090105119A1, “ASPARAGINE-10-SUBSTITUTED NONADEPSIPEPTIDES” (priority 2006, published 2009)
*1 amine or outer side, *2 acyl side, *3 side chain or, on linkers, in order; H or OH if unused. Where a SMILES comes first, the peptide text is derived from it. Bridges are numbered along the chain shown (N, C = ends). Side-chain parts run from the residue outwards. [ ]: non-standard residue; d: D form. The star is where a group is joined. X4 = O=C(CNC(=O)[C@@H](O)[C@H](N[*:1])C(=O)[*:2])OCc1ccccc1; Phe(3R-OH) = O=C([C@@H](N[*:1])[C@H](O[*:3])c1ccccc1)[*:2]; X8 = O=C(NCCCN1CCOCC1)[C@@H](O)[C@H](N[*:1])C(=O)[*:2]; X7 = O=C(NCc1ccccc1)[C@@H](O)[C@H](N[*:1])C(=O)[*:2]; X6 = NC(=O)CNC(=O)[C@@H](O)[C@H](N[*:1])C(=O)[*:2]; X3 = O=C([C@@H](N[*:1])[C@H](O)C(=O)[*:3])[*:2]; X5 = NCCNC(=O)[C@@H](O)[C@H](N[*:1])C(=O)[*:2]; Leu(3R-OH) = CC(C)[C@@H](O)[C@H](N)C(=O)O; Ethylenediamine = C(CN[*:2])N[*:1]; aThr = C[C@H](O)[C@H](N)C(=O)O; Cbz = O=C(OCc1ccccc1)*

Tests used:
[1] = Determination of the free fraction (fu) in plasma; format: in vitro ADME, rat; conditions: rat, plasma, pH 7.4
Procedure: (§1) Principle of the Determination of the Free Fraction Via Transil:
(§2) The method described here for determining the free fraction (fu) of a test substance is divided into 2 parts:
(§3) a) Determination of the Transil®/buffer distribution ratio (MAbuffer) by incubating the test substance in a Transil®-buffer (pH 7.4) dispersion and subsequently determining the concentration in the dispersion and in the buffer supernatant.
(§4) b) Determination of the Transil®/plasma distribution ratio (MAplasma) by incubating the test substance in a Transil®-plasma dispersion and subsequently determining the concentration in the dispersion and in the plasma.
(§5) The quotient of the two distribution ratios yields fu.
(§6) In the case of highly protein-bound substances, the plasma is usually diluted with isotonic phosphate buffer (pH 7.4) and then suspended with Transil®. The determination of fu′ (free fraction in diluted plasma) in this diluted protein solution takes place in analogy to the determination of fu. The free fraction in undiluted plasma is calculated from fu′ and the dilution factor.
(§7) Concerning this method, compare also: Schuhmacher, Joachim; Kohlsdorfer, Christian; Buehner, Klaus; Brandenburger, Tim; Kruk, Renate, “High-throughput determination of the free fraction of drugs strongly bound to plasma proteins.” Journal of Pharmaceutical Sciences 2004, 93, 816-830.
(§8) Determination of the Membrane Affinity of a Test Substance after Distribution Between Transil® and Buffer (MAbuffer):
(§9) All incubations are carried out in suitable glass vessels, e.g. glass vials, ground-socket test tubes. In general the total volume is 0.5-5 ml, and the Transil® volume 10-100 μl. In cases where the membrane affinities are expected to be high, the Transil® dispersion can be diluted up to 20-fold with phosphate buffer of pH 7.4, e.g. Dulbecco's PBS. Phosphate buffer of pH 7.4 is provided in the incubation vessels, and the Transil® is pipetted in, after thorough mixing. The test substance is pipetted in at a concentration of, for example, 200 ng/mL, n=6. The proportion of organic solvent should be <2%. The mixtures are incubated at room temperature for 30 min, e.g. on a mini-shaker at an angle of about 45°, at about 400 rpm. In order to determine the 100% value at least one aliquot of, for example, 100 μl, is removed and the remaining mixture is centrifuged at about 1800 g for about 10 min. At least 2 aliquots (e.g. 100 μl) of the supernatant are removed from each sample for the determination of the concentration.
(§10) Determination of MAplasma in Undiluted or Diluted Plasma:
(§11) The total incubation volume and the added volume of Transil® depend on the expected free fraction. In general the total volume is 0.5-1 ml, and the Transil® volume is 10-100 μl. In cases where the free fractions are very low, the plasma of the species to be investigated is diluted, with isotonic buffer solution, pH 7.4, e.g. 10-400-fold, and the Transil® is then added. The subsequent procedure takes place as described above for the determination of the MAbuffer values. […]
(§12) The plasma of the species to be investigated is filtered through a semipermeable membrane. The substance concentration in the filtrate is measured and the free fraction fu is calculated therefrom. […] The substance concentration in the ultrafiltrate (Cu; unbound substance concentration) and in the plasma before centrifugation (C; total substance concentration) is measured. The free fraction is calculated by the formula: fu (%)=Cu/C*100.

[2] = Determination of the free fraction (fu) in plasma; format: in vitro ADME; conditions: human
Procedure: as §1, §2, §3, §4, §5, §6, §7, §8, §9, §10, §11, §12

[3] = test system: Staphylococcus aureus 133; format: cell-based; conditions: 133
Procedure: (§13) Determination of the Minimum Inhibitory Concentration (MIC):
(§14) The MIC is determined in the liquid dilution test in accordance with the NCCLS guidelines. Overnight cultures of Staphylococcus aureus 133, Enterococcus faecalis 27159, E. faecium 4147 and Streptococcus pneumoniae G9a are incubated with the described test substances in a 1:2 dilution series. The MIC determination is carried out with a cell count of 10^5 microbes per ml in Isosensitest medium (Difco, Irvine/USA), with the exception of S. pneumoniae which is tested in BHI broth (Difco, Irvine/USA) with 10% bovine serum with a cell count of 10^6 microbes per ml. The cultures are incubated at 37° C. for 18-24 hours, S. pneumoniae in the presence of 10% CO2.
(§15) The MIC is defined as the lowest concentration of each substance at which no visible bacterial growth occurs any longer. The MIC values are reported in μg/ml.

[4] = test system: Streptococcus pneumoniae G9a; format: cell-based; conditions: G9a
Procedure: as §13, §14, §15

[5] = test system: E. faecalis ICB 27159; format: cell-based, Enterococcus faecalis; conditions: ICB 27159
Procedure: as §13, §14, §15

Compound | fraction unbound at 30 min, 200 ng/mL [1] | fraction unbound at 30 min [2] | MIC S. aureus 133 [3] [µg/mL] | MIC S. pneumoniae G9a [4] [µg/mL] | MIC E. faecalis ICB 27159 [5] [µg/mL]
CC[C@H](C)[C@@H]1NC(=O)[C@@H](CCCNC(=N)N)NC(=O)[C@H](CC(C)C)NC(=O)[C@H]([C@H](O)C(C)C)NC(=O)[C@@H](NC(=O)[C@H](CC(C)C)NC(=O)[C@H](N)CC(C)C)[C@@H](c2ccccc2)OC(=O)[C@H](CO)NC(=O)[C@H]([C@H](O)C(=O)NCCCN2CCOCC2)NC(=O)CNC(=O)[C@H]([C@H](C)O)NC1=O [Example 4, N^4.10-(3-Morpholin-4-yl-propyl)-D-leucyl-L-leucyl-[(3R)-3-hydroxy-L-phenylalanyl]-[(3R)-3-hydroxy-L-leucyl]-L-leucyl-D-arginyl-L-isoleucyl-L-allothreonylglycyl-[(3S)-3-hydroxy-L-asparaginyl]-L-serine C^1.11—O^3.3-lactone Tristrifluoroacetate] (H-[dL]L[Phe(3R-OH)][Leu(3R-OH)]L[dR]I[aThr]G[X8]S; ester 3-C) | 0.068 | 0.024 | – | – | –
CC[C@H](C)[C@@H]1NC(=O)[C@@H](CCCNC(=N)N)NC(=O)[C@H](CC(C)C)NC(=O)[C@H]([C@H](O)C(C)C)NC(=O)[C@@H](NC(=O)[C@H](CC(C)C)NC(=O)[C@H](N)CC(C)C)[C@@H](c2ccccc2)OC(=O)[C@H](CO)NC(=O)[C@H]([C@H](O)C(=O)NCCNC(=O)OCc2ccccc2)NC(=O)CNC(=O)[C@H]([C@H](C)O)NC1=O.O=C(O)C(F)(F)F.O=C(O)C(F)(F)F [Example 9, N^4.10-(2-{[(Benzyloxy)carbonyl]amino}ethyl)-D-leucyl-L-leucyl-[(3R)-3-hydroxy-L-phenylalanyl]-[(3R)-3-hydroxy-L-leucyl]-L-leucyl-D-arginyl-L-isoleucyl-L-allothreon-ylglycyl-[(3S)-3-hydroxy-L-asparaginyl]-L-serine C^1.11—O^3.3-lactone Bistrifluoroacetate] (H-[dL]L[Phe(3R-OH)][Leu(3R-OH)]L[dR]I[aThr]G[X3]([Ethylenediamine-Cbz])S; ester 3-C) | – | – | 0.5 | 2 | 16
CC[C@H](C)[C@@H]1NC(=O)[C@@H](CCCNC(=N)N)NC(=O)[C@H](CC(C)C)NC(=O)[C@H]([C@H](O)C(C)C)NC(=O)[C@@H](NC(=O)[C@H](CC(C)C)NC(=O)[C@H](N)CC(C)C)[C@@H](c2ccccc2)OC(=O)[C@H](CO)NC(=O)[C@H]([C@H](O)C(=O)NCC(N)=O)NC(=O)CNC(=O)[C@H]([C@H](C)O)NC1=O.O=C(O)C(F)(F)F.O=C(O)C(F)(F)F [Example 10, N^4.10-(2-Amino-2-oxoethyl)-D-leucyl-L-leucyl-[(3R)-3-hydroxy-L-phenylalanyl]-[(3R)-3-hydroxy-L-leucyl]-L-leucyl-D-arginyl-L-isoleucyl-L-allothreonylglycyl-[(3S)-3-hydroxy-L-asparaginyl]-L-serine C^1.11—O^3.3-lactone Bistrifluoroacetate] (H-[dL]L[Phe(3R-OH)][Leu(3R-OH)]L[dR]I[aThr]G[X6]S; ester 3-C) | – | – | 0.25 | 1 | 2
CC[C@H](C)[C@@H]1NC(=O)[C@@H](CCCNC(=N)N)NC(=O)[C@H](CC(C)C)NC(=O)[C@H]([C@H](O)C(C)C)NC(=O)[C@@H](NC(=O)[C@H](CC(C)C)NC(=O)[C@H](N)CC(C)C)[C@@H](c2ccccc2)OC(=O)[C@H](CO)NC(=O)[C@H]([C@H](O)C(=O)NCCN)NC(=O)CNC(=O)[C@H]([C@H](C)O)NC1=O.O=C(O)C(F)(F)F.O=C(O)C(F)(F)F.O=C(O)C(F)(F)F [Example 12, N^4.10-(2-Aminoethyl)-D-leucyl-L-leucyl-[(3R)-3-hydroxy-L-phenylalanyl]-[(3R)-3-hydroxy-L-leucyl]-L-leucyl-D-arginyl-L-isoleucyl-L-allothreonylglycyl-[(3S)-3-hydroxy-L-asparaginyl]-L-serine C^1.11—O^3.3-lactone Tristrifluoroacetate] (H-[dL]L[Phe(3R-OH)][Leu(3R-OH)]L[dR]I[aThr]G[X5]S; ester 3-C) | – | – | 0.5 | 2 | 8
CC[C@H](C)[C@@H]1NC(=O)[C@@H](CCCNC(=N)N)NC(=O)[C@H](CC(C)C)NC(=O)[C@H]([C@H](O)C(C)C)NC(=O)[C@@H](NC(=O)[C@H](CC(C)C)NC(=O)[C@H](N)CC(C)C)[C@@H](c2ccccc2)OC(=O)[C@H](CO)NC(=O)[C@H]([C@H](O)C(=O)NCc2ccccc2)NC(=O)CNC(=O)[C@H]([C@H](C)O)NC1=O [Example 6, N^4.10-Benzyl-D-leucyl-L-leucyl-[(3R)-3-hydroxy-L-phenylalanyl]-[(3R)-3-hydroxy-L-leucyl]-L-leucyl-D-arginyl-L-isoleucyl-L-allothreonylglycyl-[(3S)-3-hydroxy-L-asparaginyl]-L-serine C^1.11—O^3.3-lactone Bistrifluoroacetate] (H-[dL]L[Phe(3R-OH)][Leu(3R-OH)]L[dR]I[aThr]G[X7]S; ester 3-C) | 0.07 | 0.026 | – | – | –
CC[C@H](C)[C@@H]1NC(=O)[C@@H](CCCNC(=N)N)NC(=O)[C@H](CC(C)C)NC(=O)[C@H]([C@H](O)C(C)C)NC(=O)[C@@H](NC(=O)[C@H](CC(C)C)NC(=O)[C@H](N)CC(C)C)[C@@H](c2ccccc2)OC(=O)[C@H](CO)NC(=O)[C@H]([C@H](O)C(=O)NCC(=O)OCc2ccccc2)NC(=O)CNC(=O)[C@H]([C@H](C)O)NC1=O.O=C(O)C(F)(F)F.O=C(O)C(F)(F)F [Example 8, N^4.10-(2-(Benzyloxy)-2-oxoethyl)-D-leucyl-L-leucyl-[(3R)-3-hydroxy-L-phenylalanyl]-[(3R)-3-hydroxy-L-leucyl]-L-leucyl-D-arginyl-L-isoleucyl-L-allothreonylglycyl-[(3S)-3-hydroxy-L-β-asparaginyl]-L-serine C^1.11—O^3.3-lactone Bistrifluoroacetate] (H-[dL]L[Phe(3R-OH)][Leu(3R-OH)]L[dR]I[aThr]G[X4]S; ester 3-C) | – | – | 0.5 | 2 | 16
